Earlier results in patent publication US9555118B2, “Robust controlled-release peptide formulations” (CAMURUS AB, priority 2011, dated 2017).
*1 amine or outer side, *2 acyl side, *3 side chain or, on linkers, in order; H or OH if unused. Where a SMILES comes first, the peptide text is derived from it. Side-chain parts run from the residue outwards. [ ]: non-standard residue; d: D form. The star is where a group is joined. Ethylenediamine = C(CN[*:2])N[*:1]; Hyp = O=C(O)[C@@H]1C[C@@H](O)CN1; Phg = N[C@H](C(=O)O)c1ccccc1; CO = O=C([*:1])[*:2]; Bn = c1ccc(C*)cc1

Experiments:
[1] = test system: somatostatin receptors (SSTR1-SSTR5)
[2] = single subcutaneous dose, human plasma

For `C[C@@H](O)[C@@H]1NC(=O)[C@H](CCCCN)NC(=O)[C@@H](Cc2c[nH]c3ccccc23)NC(=O)[C@H](Cc2ccccc2)NC(=O)[C@@H](NC(=O)[C@H](N)Cc2ccccc2)CSSC[C@@H](C(=O)N[C@H](CO)[C@@H](C)O)NC1=O` [Octreotide, D-Phe-Cys-Phe-D-Trp-Lys-Thr-Cys-Thr-ol (2-7 disulphide bridge)], the Terminal half-life (in vivo) is given as “around 1.7 hours” and the Somatostatin receptor selectivity [1] is given as “high selectivity for SSTR2 and SSTR5”.
In the case of `NCCCC[C@@H]1NC(=O)[C@@H](Cc2c[nH]c3ccccc23)NC(=O)[C@H](c2ccccc2)NC(=O)[C@@H]2C[C@@H](OC(=O)NCCN)CN2C(=O)[C@H](Cc2ccccc2)NC(=O)[C@H](Cc2ccc(OCc3ccccc3)cc2)NC1=O` [Pasireotide] (cyclo([Hyp]([CO-Ethylenediamine])[Phg][dW]KY(Bn)F)), the Somatostatin receptor affinity [1] is given as “high affinity for somatostatin receptor subtypes sstr1,2,3 and sstr5” and the “Initial half-life following the peak” value [2] is given as 2 to 3 h.
In the case of “Ala-Gly-Cys-Lys-Asn-Phe-Phe-Trp-Lys-Thr-Phe-Thr-Ser-Cys [SST-14]”, the Biological half-life (natural SST-14) is listed as 1-3 minutes and the Somatostatin receptor affinity [1] is listed as “equally high affinity”.
